{
  "source": "PubChem BioAssay AID200",
  "about": "(DTP/NCI, 2004)",
  "system": "B6C3F1 mice, B16 melanoma ip, median survival T/C",
  "assay": "NCI In Vivo Anticancer Drug Screen. Data for tumor model B16 Melanoma (intraperitoneal) in B6C3F1 mice",
  "details": "endpoint: median survival time, schedule: Q01DX009 (ip), higher = longer survival",
  "outline": "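Readout: survival or tumor size in treated mice relative to vehicle controls (T/C). Model uses transplantable tumors grown in mice.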",
  "note": "Where “and” joins values, the source holds several entries; their conditions need not be identical. Equal entries are not always repeated. Inconclusive results and toxic doses are left out.",
  "data": [
    {"smiles": "[Cl][Mn][Cl]", "values": [
      {"measurement": "T/C", "setting": "dose: 2.0 mg/kg/injection, vehicle: saline", "value": "115 % of control and 107 % of control"},
      {"measurement": "T/C", "setting": "dose: 4.0 mg/kg/injection, vehicle: saline", "value": "96 % of control and 103 % of control and 106 % of control"},
      {"measurement": "T/C", "setting": "dose: 8.0 mg/kg/injection, vehicle: saline", "value": "112 % of control and 98 % of control"},
      {"measurement": "T/C", "setting": "dose: 16.0 mg/kg/injection, vehicle: saline", "value": "104 % of control"},
      {"measurement": "T/C", "setting": "dose: 32.0 mg/kg/injection, vehicle: saline", "value": "155 % of control"},
      {"measurement": "T/C", "setting": "dose: 64.0 mg/kg/injection, vehicle: saline", "value": "152 % of control and 160 % of control"}
    ]},
    {"smiles": "CC1/C=C/C=C/CC/C=C/C=C/C=C/C=C/C(OC2OC(C)C(O)C(N)C2O)CC2OC(CC(O)C(O)CCC(O)CC(O)CC(O)CC(=O)OC(C)C(C)C1O)CC(O)C2C(=O)O", "note": "(stereo not drawn)", "values": [
      {"measurement": "T/C", "setting": "dose: 6.25 mg/kg/injection, vehicle: saline with Tween-80", "value": "107 % of control"},
      {"measurement": "T/C", "setting": "dose: 12.5 mg/kg/injection, vehicle: saline with Tween-80", "value": "96 % of control"},
      {"measurement": "T/C", "setting": "dose: 25.0 mg/kg/injection, vehicle: saline with Tween-80", "value": "102 % of control"},
      {"measurement": "T/C", "setting": "dose: 50.0 mg/kg/injection, vehicle: saline with Tween-80", "value": "98 % of control"},
      {"measurement": "T/C", "setting": "dose: 100.0 mg/kg/injection, vehicle: saline with Tween-80", "value": "90 % of control"}
    ]},
    {"smiles": "O=C(C#Cc1ccccc1)c1ccccc1", "values": [
      {"measurement": "T/C", "setting": "dose: 3.12 mg/kg/injection, vehicle: Klucel (hydroxypropylcellulose) (HPC)", "value": "100 % of control and 102 % of control"},
      {"measurement": "T/C", "setting": "dose: 6.25 mg/kg/injection, vehicle: Klucel (hydroxypropylcellulose) (HPC)", "value": "92 % of control and 102 % of control"},
      {"measurement": "T/C", "setting": "dose: 12.5 mg/kg/injection, vehicle: Klucel (hydroxypropylcellulose) (HPC)", "value": "97 % of control and 101 % of control"},
      {"measurement": "T/C", "setting": "dose: 25.0 mg/kg/injection, vehicle: Klucel (hydroxypropylcellulose) (HPC)", "value": "90 % of control and 94 % of control"}
    ]},
    {"smiles": "CC(C)(C)OC(=O)NC(Cc1ccc(O)cc1)C(=O)O", "note": "(stereo not drawn)", "values": [
      {"measurement": "T/C", "setting": "dose: 100.0 mg/kg/injection, vehicle: Klucel (hydroxypropylcellulose) (HPC)", "value": "108 % of control"},
      {"measurement": "T/C", "setting": "dose: 200.0 mg/kg/injection, vehicle: Klucel (hydroxypropylcellulose) (HPC)", "value": "103 % of control"},
      {"measurement": "T/C", "setting": "dose: 400.0 mg/kg/injection, vehicle: Klucel (hydroxypropylcellulose) (HPC)", "value": "97 % of control"}
    ]}
  ]
}
